Values of other authors in patent US11020416B2, “Cancer chemotherapy employing halogenated analogs of thymidine” (priority 2015, dated 2021).
Read-outs that look alike come from different tables or passages of the source.

Tests used:
[1] = tested on: Oropharynx and Upper Extremity Tumors; conditions: trial b, 1962, 4 patients, dose 3.9, iv/ia, no radiation, single cycle 1 week; cited from earlier work
[2] = intraperitoneal, Morgan 1998, cited from earlier work
Carcinoma, Melanoma = conditions: trial c, 1962, 39 patients, dose 3.5, iv, no radiation, single cycle 1 week; cited from earlier work
[3] = 14-day continuous infusion alternating with 14 days without infusion; cited from earlier work
[4] = tested on: Melanoma, Carcinoma, Sarcoma; conditions: trial a, 1961, 16 patients, dose 3.1, iv, rad +/−, multiple cycles up to 5 months; cited from earlier work
[5] = cited from earlier work; for [IdU] plasma, average steady-state: continuous iv; for [IU] plasma (iodouracil), average steady-state: continuous iv IdU
PARP1 = PARP1 (Homo sapiens, UniProt P09874); conditions: solution; Pivazyan, 1992; cited from earlier work
PARP1, sequence (P09874 whole entry, species assumed): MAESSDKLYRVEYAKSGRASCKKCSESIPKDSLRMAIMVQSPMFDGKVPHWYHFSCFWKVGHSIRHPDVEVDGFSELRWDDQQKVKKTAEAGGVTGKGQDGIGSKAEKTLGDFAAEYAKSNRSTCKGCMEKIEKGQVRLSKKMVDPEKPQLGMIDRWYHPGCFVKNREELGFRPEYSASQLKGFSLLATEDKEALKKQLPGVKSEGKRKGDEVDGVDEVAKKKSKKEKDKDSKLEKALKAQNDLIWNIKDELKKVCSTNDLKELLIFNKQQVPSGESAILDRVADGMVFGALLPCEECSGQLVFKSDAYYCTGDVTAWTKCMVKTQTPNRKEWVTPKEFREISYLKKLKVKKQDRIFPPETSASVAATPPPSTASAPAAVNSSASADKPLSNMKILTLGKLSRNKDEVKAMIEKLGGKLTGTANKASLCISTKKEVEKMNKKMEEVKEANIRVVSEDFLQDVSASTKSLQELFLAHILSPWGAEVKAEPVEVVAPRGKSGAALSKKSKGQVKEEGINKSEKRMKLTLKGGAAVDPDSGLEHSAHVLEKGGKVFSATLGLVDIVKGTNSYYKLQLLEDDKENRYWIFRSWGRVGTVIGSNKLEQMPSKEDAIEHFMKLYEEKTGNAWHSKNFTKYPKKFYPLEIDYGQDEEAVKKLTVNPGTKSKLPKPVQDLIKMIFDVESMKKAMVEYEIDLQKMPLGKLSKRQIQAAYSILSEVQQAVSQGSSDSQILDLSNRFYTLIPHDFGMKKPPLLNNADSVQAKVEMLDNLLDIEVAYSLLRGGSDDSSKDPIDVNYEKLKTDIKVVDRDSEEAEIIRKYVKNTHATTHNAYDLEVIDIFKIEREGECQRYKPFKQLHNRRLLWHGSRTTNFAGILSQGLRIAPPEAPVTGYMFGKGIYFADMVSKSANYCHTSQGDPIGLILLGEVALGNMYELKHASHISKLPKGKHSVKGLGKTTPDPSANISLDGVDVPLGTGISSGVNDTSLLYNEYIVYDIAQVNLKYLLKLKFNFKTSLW

Unresectable Sarcoma = conditions: trial d, 1987, 14 patients, dose 1.3, iv, with radiation, multiple cycles up to 5 months, cited from earlier work
[6] = tested on: Colorectal Liver Metastases; conditions: trial f, 1989, 11 patients, dose 1.0, ia, no radiation, multiple cycles up to 5 months, cited from earlier work
[7] = schedule A, 4.538 Grams/M^2/4 hr (2 liters), 64 millimolar
[8] = schedule G, 1.000 Grams/M^2/day, Kinsella 1988
[9] = schedule I, 0.781 Grams/M^2/day, Schultz 2004
[10] = schedule J, 0.625 Grams/M^2/day, Schultz 2004
[11] = schedule M, 0.500 Grams/M^2/day, Schultz 2004
[12] = schedule N, 0.400 Grams/M^2/day, Schultz 2004
[13] = schedule O, 0.300 Grams/M^2/day, Schultz 2004
[14] = schedule Q, 0.200 Grams/M^2/day, Schultz 2004
[15] = schedule R, 0.100 Grams/M^2/day, Schultz 2004

## O=c1[nH]c(=O)n([C@H]2C[C@H](O)[C@@H](CO)O2)cc1I [Iododeoxyuridine, 5-iododeoxyuridine]
[1]
  objective improvement: 100%
  subjective improvement: 100%
[2]; [7]
  Peritoneal AUC: 4099 µM·h
  Plasma AUC: 139 µM·h
[2]; schedule F, 0.625 Grams/M^2/4 hr (2 liters), 9 millimolar
  Plasma AUC: 4.38 µM·h
Carcinoma, Melanoma
  objective improvement: 26%
[3]
  time after HAT withdrawal to myelosuppression nadir and return of blood cell counts to normal: 7 to 10 days
[4]
  objective improvement: 38%
  subjective improvement: 38%
[5]; continuous circulatory infusion, historic trials d-f
  plasma concentration achieved: > 1000 nM
[5]; pharmacokinetic analysis in patients
  elimination from patient plasma: rapidly eliminated
[5]; schedule C, 1.200 Grams/M^2/day, Klecker 1985
  [IdU] plasma, average steady-state: 7.4 µM
[5]; schedule D, 1.200 Grams/M^2/day, Kinsella 1988
  [IdU] plasma, average steady-state: 3.4 µM
[5]; schedule E, 1.000 Grams/M^2/day, Klecker 1985
  [IdU] plasma, average steady-state: 5.6 µM
[5]; [8]
  [IU] plasma (iodouracil), average steady-state: >20 µM
  [IdU] plasma, average steady-state: 2.4 µM
[5]; schedule H, 0.850 Grams/M^2/day, Klecker 1985
  [IdU] plasma, average steady-state: 4.5 µM
[5]; [9]
  [IU] plasma (iodouracil), average steady-state: 21.8 µM
  [IdU] plasma, average steady-state: 1.5 µM
[5]; [10]
  [IU] plasma (iodouracil), average steady-state: 13.9 µM
  [IdU] plasma, average steady-state: 1.3 µM
[5]; schedule K, 0.500 Grams/M^2/day, Klecker 1985
  [IdU] plasma, average steady-state: 2.9 µM
[5]; schedule L, 0.500 Grams/M^2/day, Kinsella 1988
  [IdU] plasma, average steady-state: 1.3 µM
[5]; [11]
  [IU] plasma (iodouracil), average steady-state: 6.0 µM
  [IdU] plasma, average steady-state: 0.92 µM
[5]; [12]
  [IU] plasma (iodouracil), average steady-state: 4.3 µM
  [IdU] plasma, average steady-state: 0.90 µM
[5]; [13]
  [IU] plasma (iodouracil), average steady-state: 3.0 µM
  [IdU] plasma, average steady-state: 0.57 µM
[5]; schedule P, 0.250 Grams/M^2/day, Klecker 1985
  [IdU] plasma, average steady-state: 1.1 µM
[5]; [14]
  [IU] plasma (iodouracil), average steady-state: 1.4 µM
  [IdU] plasma, average steady-state: 0.79 µM
[5]; [15]
  [IU] plasma (iodouracil), average steady-state: 0.38 µM
  [IdU] plasma, average steady-state: 0.51 µM
PARP1
  Ki: 18 µM
Unresectable Sarcoma
  objective improvement: 80%
  subjective improvement: more than half of patients
Unresectable Sarcoma; listed as IUDR
  subjective improvement: 57%
[6]
  objective improvement: almost half of the patients
[6]; listed as IUDR
  objective improvement: 45%
